From patent US4551453A, “2-(ω-Alkylaminoalkyl)- and 2-(ω-dialkylaminoalkyl-3-(4-X-benzylidene)-phthalimidines” (Laboratori Baldacci SpA, priority 1982, dated 1985)
Where a name gives a salt, the structure may show the parent alone. One block for each compound: values may come before it.

Columns and labels:
[1] = tested on: sciatic nerve of edible frog; assay: Test on the sciatic nerve of frog (inhibition of action potential); details: for times more powerful than procaine: sciatic nerve of frog, vs procaine; for times more active than lidocaine: deduced from frog sciatic nerve comparison with procaine and literature lidocaine/procaine ratio
Experimental: There was assessed the concentration of the tested substances (AL 12, AL 12 B and AL 5) capable of inhibiting or reducing the action potential of the sciatic nerve of edible frog after removal of a lenght of perinerium.
The stimulating device was sending maximum pulses of 0.1 msec of duration.
The reductions of the action potential after application of the substances were indicated as percentages of the initial action potential.
The comparison substance was procaine at the following concentrations: 0.4-0.6 and 0.8M

[2] = Pharmacodynamic tests (overall local anesthetic activity comparison); details: AL 12 vs lidocaine, as it appears from the pharmacodynamic tests
Experimental: As regards the pharmacodynamic tests, they were carried out on the following compounds:
The local anesthetic power of these compounds was tested in comparison with procaine, xylocaine and tetracaine.

[3] = tested on: Schizosaccharomyces Pombe; assay: Test of genic mutation (forwardly); format: cell-based; details: up to the concentration of 5 ml (so in the source)
Experimental: (§1) The compound AL 12 was subjected to the tests of genic mutation. All the tests used for such experiments were carried out and precisely:
(b) Test of genic mutation (forwardly) of Schizosaccharomyces Pombe, permitting the evaluation of every mutagenic event capable of varying the functionality of every 5 genes involved in the synthesis of adenine;

vagal nerve of chicken = assay: Test of inhibition of the action potential of the vagal nerve of chicken; details: for IC50: parameter (b), stimulations higher than the maximum, read-out: ED 50, inhibition of the width of the action potential; for effects vs tetracaine: same molar concentrations as tetracaine
From the text: For these tests two investigation parameters were selected:
(a) increase of the stimulating threshold necessary to induce the appearance of the action potential;
(b) inhibition of the potential width as induced by the supra maximum stimulation. AL 12 and AL 12 B were compared with the tetracaine.

[4] = Lethality and toxicity for single dose (rat); details: in vivo, ip
From the text: Lethality and toxicity for single dose

in vivo = details: mouse
Salmonella Typhymurium = assay: Ames test; format: cell-based; details: up to the concentration of 5 ml (so in the source)
Experimental: as §1
(a) Ames test using as the substrate a protocariote organism as Salmonella Typhymurium;

rabbit cornea = assay: Test of the rabbit cornea; format: in vivo
From the text: There were used amounts of AL 12 of 0.25-0.50-1.0% in comparison with amounts of 1% and 2% of xylocaine.

[5] = tested on: cellular line Hela of human fibroplasts; assay: DNA recovery test (non programmed synthesis of recovery DNA); format: cell-based; details: up to the concentration of 5 ml (so in the source)
Experimental: as §1
(c) DNA recovery test, i.e. test of the non programmed synthesis of recovery DNA on the cellular line Hela of human fibroplasts.

mice = details: i.v. route
Male and female rats = assay: 60 day intramuscular toxicological study; format: in vivo; details: 60 days
Experimental: (§2) In order to shown the potential toxicity of the compound AL 12 B a toxicological study was programmed which either for the duration of the administration period (60 days), and for the route of introduction in the organism (intramuscular) and for the variety of used dosages (5-10-20 mg/kg) was surely suitable to indicate the possible toxicity of the substance.
(§3) It is pointed out that the lowest dose used in the test is already about 5 to 10 times higher than the single therapeutical dose, possibly used by infiltration in the human being. Male and female rats, having respectively a body weight of about 90 and 65 g, were divided in groups of 6-9 animals of the same sex and stalled in 2 to 3 animals per cage with water and food ad libitum.
(§4) The environment conditions were maintained constant at 24° C., moisture at night-day cycle.
(§5) The drug in apirogenic sterile solution was daily injected by intramuscolar route. At the end of the treatment the animals were anesthetized for the blood removal for the hematochemical and hematological examinations. The animals were than sacrificed and the weight of the single fresh organs was carefuly recorded. The hematochemical parameters which were taken into consideration were the following: glycemia, uricemia, alkaline phosphatase (ALP) malate dehydrogenase (MDH), acetylcholinesterase (CHE), SGPT, SGOT, L-y-glutamyltransferase (Y.G.T.), ornitincarbonyltransferase (O.C.T.), triocylglycerolacylhydrolase (Lipase), isocitratedehydrogenase (ICDH), sorbitole dehydrogenase (SDH), hydroxybutyrate dehydrogenase (HCDH), lactic dehydrogenase (LDHP), […] arylamidase (LAP), sodiemia, potassiemia, chloridemia, magnesiemia, calcemia, total tryglicerides, albumins, globulins, A/G total proteins, total cholesterole, amylasemia, creatininemia. Some hematological parameters were furthermore measured: red corpuscles, platelets, white corpusles, leucocitary form, hemoglobine.
(§6) The urinary parameters taken into consideration were, besides the 24 hour volume, azotemia, creatininuria, amylasuria, uricuria, calciuria, chlorides, sodium and potassium.
(§7) For the statistical evaluations of the weight of the fresh organs the analysis of the covariations was effected in order to eliminate the possible influences of the body weight onto the organ weight.
(§8) The hematological and hematochemical parameters were statistically balanced by means of the variancy analysis by taking into consideration all the gropus and the Student "t" amongst the single treated groups and the control group.
(§9) The homogeneity of the leucocitary form was investigated by the .chi.^2 test.

[6] = 60 day intramuscular toxicological study; format: in vivo, rats; details: rat, in vivo, im; rats, i.m., 60 days; read-out: dosage of first toxic alterations relative to single dose useful in the human being
Experimental: as §2, §3, §4, §5, §6, §7, §8, §9

Wistar rats = assay: Subacute toxicity, 15 days intramuscular; details: 10 mg/kg AL 12 or lidocaine at equivalent molecular dose
Experimental: It was tested in two stocks of Wistar rats, in three groups each comprising 20 animals, (10 male and 10 female).
The injections were carried out by intramuscolar route in a point of the thigh for 15 days.

[7] = tested on: sciatic nerve of edible frog; details: as unanimously stated in the literature; cited from earlier work

Structure (SMILES): CN(C)CCCN1C(=O)c2ccccc2C1=Cc1ccccc1 [AL 5, 3-benzylidene-2-(γ-dimethylaminopropyl)-phthalimidine hydrochloride]
times more powerful than procaine [1]: about 5 times

Structure (SMILES): CCN(CC)CCN1C(=O)c2ccccc2C1=Cc1ccc(OC)cc1 [AL 12, 3-(4-methoxybenzylidene)-2-(β-diethylaminoetyl)phthalimidine hydrochloride]
local anesthetic activity: lidocaine is about n times less active than AL 12 [2]: about 4 times | induction of mutations, genic mutation (forwardly) [3]: unable to induce mutations | IC50 (vagal nerve of chicken): 0.008 µM | effects vs tetracaine (vagal nerve of chicken): almost perfectly superimposable to those of tetracaine | LD50 [4]: 52.5 mg/kg | LD50 (in vivo; im): 32.5 mg/kg | LD50 (in vivo; iv): 13.5 mg/kg | induction of mutations, Ames test (Salmonella Typhymurium): unable to induce mutations | times more active than lidocaine [1]: 5-6 times | times more powerful than procaine [1]: about 11.5 times | duration of complete anesthesy (rabbit cornea; 0.25% AL 12): 30 min | duration of complete anesthesy vs xylocaine at a 4 times higher concentration (rabbit cornea; 0.25% AL 12 vs 4 times higher xylocaine): slightly lower | duration of the complete anesthesy (rabbit cornea; 0.50% AL 12): more than 90 minutes | anesthetic power vs xylocaine at a 4 times higher dose (rabbit cornea; 0.50% AL 12 vs 2% xylocaine): higher | induction of mutations, DNA recovery test [5]: unable to induce mutations | acute toxicity, times higher in comparison with lidocaine (mice): about 2.4 (2.37) times

Structure (SMILES): CCN(CC)CCN1C(=O)c2ccccc2C1=Cc1ccc(OC(C)=O)cc1 [AL 12B, 3-(4-acetoxybenzylidne)-2-(β diethylaminoethyl)-phthalimidine hydrochloride]
effects vs tetracaine (vagal nerve of chicken): almost perfectly superimposable to those of tetracaine | all the investigated parameters (Male and female rats; 5 mg/kg i.m.): none appeared to be modified | HBDG (Male and female rats; female, 10 mg/kg i.m.): increase | LDH-P (Male and female rats; female, 10 mg/kg i.m.): increase | globulins (Male and female rats; female, 10 mg/kg i.m.): increase | urinary parameters, females (Male and female rats; female, 10 mg/kg i.m.): no alteration might be appreciated | alterations in female animals (Male and female rats; female, 20 mg/kg i.m.): no alteriation might be appreciated | body weight growth vs control (Male and female rats; male and female rats, 5-10-20 mg/kg i.m.): comparable with that of the control animals | hematological parameters (Male and female rats; male and female, 10 mg/kg i.m.): None of the hematological parameters was modified | body weight growth, males at higher dosages (not statistically significant) (Male and female rats; male rats, 10-20 mg/kg i.m.): tendentially reduced | albumins (Male and female rats; male, 10 mg/kg i.m.): reduction | amylasuria (Male and female rats; male, 10 mg/kg i.m.): reduced | glycemia (Male and female rats; male, 10 mg/kg i.m.): reduction | spleen weight, males (Male and female rats; male, 10 mg/kg i.m.): slight increase | urinary chloride (Male and female rats; male, 10 mg/kg i.m.): reduced | weight of the spleen (Male and female rats; male, 20 mg/kg i.m.): increased | weight of the suprarenal glands (Male and female rats; male, 20 mg/kg i.m.): increased | ALP (alkaline phosphatase) (Male and female rats; male, found also in female, 10 mg/kg i.m.): slight increase | dose-dependence of the observed modifications (Male and female rats; rats, 5-10-20 mg/kg i.m.): none of the observed modifications, was shown to be dose-dependent | overall toxicity (Male and female rats; rats, 5-10-20 mg/kg i.m.): not particularly toxic | selectivity ratio at 1440 h [6]: 10 | times more active than lidocaine [1]: about 4 times | IC50 ([1]; sciatic nerve of edible frog, read-out: ED50 (reduction of action potential)): 80000 µM | times more powerful than procaine [1]: at least 8.5 times

Structure (SMILES): CCN(CC)CC(=O)Nc1c(C)cccc1C [lidocaine]
food consumption and diuresis (Wistar rats; all along the treatment period): normal | all the other functions (Wistar rats; intramuscular, 15 days): remained unchanged | autoptic examination (Wistar rats; intramuscular, 15 days): Nothing out of the rule was observed | loss of functionality of the injected leg, duration (Wistar rats; intramuscular, 15 days): about one | weight of the organs vs control animals (Wistar rats; intramuscular, 15 days): did not differ from that of the control animals | local anesthetic activity, times higher than procaine [7]: about 2.2 times

IC50 (vagal nerve of chicken): 0.008 µM
Structure (SMILES): CCCCNc1ccc(C(=O)OCCN(C)C)cc1 [tetracaine, reference compound]

Structure (SMILES): CCN(CC)CC(=O)Nc1c(C)cccc1C [xylocaine, reference compound]
duration of the complete anesthesy (rabbit cornea; 2% xylocaine): 60 min
